According to US20230310479A1, “LOW DOSE ADJUVANT EPIGENETIC CANCER THERAPY” (THE JOHNS HOPKINS UNIVERSITY, priority 2019, published 2023):
Where two headings read alike, the source gives them in different places.

Key:
CCR2 = CCR2 expression in monocytic MDSCs (cDNA array, quantitative PCR, FACS); assay type: in vivo, mouse; settings: three days of treatment, 30 or 75 mg/kg/d orally, LLC mice
From the text: FIGS. 2A-2G. […] FACS and graphs showing percentages and absolute numbers of the donor-derived-cell subset (CD45.1^+ cells) in both lungs of the recipient LLC mice (n=3 mice per group). FIG. 2C: Cell-sorting schema for collecting monocytic MDSCs on day 3 after resection (left). Volcano plots showing differences in RNA expression of monocytic MDSCs from the bone marrow (BM) or lung between low-dose-AET-and vehicle-treated LLC mice (right) (n=3 biological replicates). FIG. 2D: Agilent cDNA array expression of chemokines and chemokine receptors in monocytic MDSCs from bone marrow or lungs of low-dose-AET-and vehicle-treated LLC mice (n=3 biological replicates). False-discovery-rate (FDR)-adjusted P values of CCR2 are 0.005 (bone marrow) and 0.016 (lung). Cxcr7 is also known as Ackr3. […] In the FACS plot, red represents low-dose AET and blue represents mock treatment. […]
FIGS. 10A-10H. […] CD45.1^+ cells (transferred polymorphonuclear MDSCs) were identified in the lungs of the recipient mice and analyzed by flow cytometry (right, n=3 mice per group). […] CD45.1^+ cells (transferred polymorphonuclear MDSCs) were identified in the lungs of the recipient CD45.2 mice and analyzed by flow cytometry at 18 h after transfer (right, n=3 mice per group). […] Gene-set enrichment P values, NES values and FDR values reported are calculated with 1,000 permutations in the GSEA software. […]

[1] = cited from earlier work

Structure (SMILES)	expression of CCR2 in monocytic MDSCs from bone marrow in vivo (CCR2)	solubility ([1]; in acetone, ethanol and methyl ketone)	solubility ([1]; in dimethylsulfoxide (DMSO))	solubility ([1]; in ethanol/water (50/50), propylene glycol and polyethylene glycol)	solubility ([1]; in water, water-saturated octanol, 5% dextrose in water, N-methyl-2-pyrrolidone, normal saline and 5% Tween 80 in water)
Cc1ccc2nc(NCCN)c3ncc(C)n3c2c1 [BMS-345541]	decreased expression	–	–	–	–
Nc1ncn([C@@H]2O[C@H](CO)[C@@H](O)[C@H]2O)c(=O)n1 [5-azacitidine, 4-amino-1-β-D-ribofuranozyl-s-triazin-2(1H)-one]	–	insoluble	soluble	slightly soluble	sparingly soluble
